Experimental data as given in BindingDB's records for doi:10.1016/S0960-894X(00)80281-4 (1993).
pIC50: −log10 of the molar value.

Experiment: Tested for inhibition against purified catalytic subunit of protein phosphatase-1 from rabbit skeletal muscle

For C/C=C1/C(=O)N[C@@H](C(=O)O)[C@H](C)C(=O)N[C@@H](C(C)C)C(=O)N[C@@H](/C=C/C(C)=C/[C@H](C)[C@H](Cc2ccccc2)OC)[C@H](C)C(=O)N[C@@H](C(=O)O)CCC(=O)N1C [Motuporin], the pIC50 was greater than 9.00.
